Type in all cases: cell-based
Test [1] deals with A549 cells expressing EGFP. As to the kind of experiment: Cas9-RNP delivery against EGFP (gene editing, plate reader), A549. To be noted: A549 cells. How it is done: (§1) To generate an EGFP expressing HeLa cell line, HeLa cells were transfected with EGFP pDNA (pEGFP-C1, Clontech) and stable transfectants were selected with 400 μg/mL of G-418 (Millipore). Green clones were selected by epifluorescence microscopy and tested for EGFP expression stability through several passages. […] All other EGFP-expressing cell lines were obtained in a similar way from parent non-EGFP-expressing cell lines.
(§2) Cells expressing EGFP were seeded in a 96 well plate the day before the experiment at a concentration of 50,000 cell/mL (100 μL/w) in DMEM+10% FBS+1% Gln-Abt. For robotic library screening, the delivery of Cas9-RNP against EGFP (RNP designed to knock-out the gene encoding for the enhanced green fluorescent protein (EGFP)) was performed. For RNP assembly, 9.2 μL of crRNA and 9.2 μL of tracrRNA were mixed in 211.6 μL of Nuclease-Free Duplex Buffer (IDT), incubated for 5 min at 95° C. and slowly cooled at rt (see I. Lostalé-Seijo, et al. Peptide/Cas9 nanostructures for ribonucleoprotein cell membrane transport and gene edition, Chem. Sci., 2017). Cas9 protein was dissolved in DMEM at a final concentration of 4 μM and equal volumes of the RNA complex and Cas9 were mixed and incubated for 5 min at rt. 75 μL of the corresponding amphiphile concentrations were added to 5 μL of RNP at 2 μM. The mixture was shaken for 30 min at room temperature before the addition to the cells. The cell medium was aspirated, and cells were washed twice with PBS. Cells were covered with 30 μL of DMEM and 20 μL of the RNP/amphiphile complexes were added to the cells (final peptide concentrations=2.5, 5 and 10 μM; final Cas9-RNP concentration=50 nM) and incubated for 4 h. After the incubation, the medium was replaced by 100 μL of fresh DMEM supplemented with 10% FBS. The total EGFP fluorescence was quantified after 72 h in a plate reader (FIG. 2, Table 1 (right) and Table 6). All experiments were done in triplicate.
Tables 1-7: RLuc (pDNA) or EGFP (mRNA) expression levels were normalized to Lipofectamine reagents (value=1) and expressed as fold-times signal increase. In the case of siRNA, the siRNA treated cells fluorescence was compared with siMOCK control fluorescence, while Cas9-RNP mediated knockout was measured against the fluorescence of untreated cells. In both siRNA and Cas9-RNP, values are expressed as % fluorescence reduction. Amphiphile concentration was 5 μM in all cases. All experiments were performed in triplicate.
(§3) Tables 26-31 show the mean (triplicates) percentage of gene editing, accounted by GFP fluorescence intensity decrease (% of reduction), measured after the transfection of Cas9-RNP by different amphiphiles at different concentrations in a variety of cell lines. Background values, accounted by untreated control cells, were subtracted for processing.

Test [2] deals with ARPE19 cells expressing EGFP. Description: Cas9-RNP delivery against EGFP (gene editing, plate reader), ARPE19. How it is done: as §1
as §2, with “triplicate. […]” for “triplicate.”
as §3

The subject of test [3] is HepG2 cells expressing EGFP. As to the kind of experiment: Cas9-RNP delivery against EGFP (gene editing, plate reader), HepG2. How it is done:
as §1
as §2, with “triplicate. […]” for “triplicate.”
as §3

“Ac-RHLK*RHK*RRLK*RH-NH2 (Ac-RHLKRHKRRLKRH-NH2; not fully specified (residues 4, 7, 11); printed as Ac-RHLK*RHK*RRLK*RH-NH2; also: linker on K* not given here) [13(3His)]”: the “percentage of gene editing, GFP fluorescence intensity decrease (% of reduction)” value in test [1] (Myristoleyl, 5 μM) was determined as 5%; in test [1] (Myristoleyl, 10 μM) it was 11%; in test [1] (Myristoleyl, 15 μM) it was 43%; in test [1] (Oleyl, 15 μM), 4%; in test [1] (Palmitoleyl, 15 μM), 18%; in test [2] (Petroselinyl, 15 μM), 34%. The “percentage of gene editing, GFP fluorescence intensity decrease (% of reduction)” value in test [3] (Dodecanal, 5 μM) is on record as −33%; in test [3] (Dodecanal, 10 μM) it was −34%; in test [3] (Myristoleyl, 10 μM), −1%; in test [3] (Palmitoleyl, 5 μM) it was −28%; in test [3] (Palmitoleyl, 10 μM) it was −24%; in test [3] (Palmitoleyl, 15 μM), −15%. In addition, the “percentage of gene editing, GFP fluorescence intensity decrease (% of reduction)” value in test [3] (Petroselinyl, 5 μM) was −16%.
Turning to “Ac-RHLK*RLK*RRLK*RL-NH2 (Ac-RHLKRLKRRLKRL-NH2; not fully specified (residues 4, 7, 11); printed as Ac-RHLK*RLK*RRLK*RL-NH2; also: linker on K* not given here) [13(Arg-His)]”, the “percentage of gene editing, GFP fluorescence intensity decrease (% of reduction)” value in test [1] (Dodecanal, 5 μM) turned out to be 27%; in test [1] (Dodecanal, 10 μM) it was 18%; in test [1] (Myristoleyl, 5 μM) it was 5%; in test [1] (Myristoleyl, 10 μM) it was 9%; in test [1] (Oleyl, 5 μM) it was 20%; in test [1] (Oleyl, 15 μM) it was 15%. The “percentage of gene editing, GFP fluorescence intensity decrease (% of reduction)” value in test [1] (Palmitoleyl, 5 μM) came out at 15%; in test [1] (Palmitoleyl, 10 μM), 10%; in test [1] (Palmitoleyl, 15 μM), 22%; in test [1] (Petroselinyl, 5 μM), 29%; in test [2] (Dodecanal, 5 μM), 25%; in test [2] (Dodecanal, 15 μM), 21%. The “percentage of gene editing, GFP fluorescence intensity decrease (% of reduction)” value is given as 15% in test [2] (Myristoleyl, 10 μM); 9% in test [2] (Myristoleyl, 15 μM); 14% in test [2] (Oleyl, 5 μM); −6% in test [2] (Oleyl, 10 μM); 25% in test [2] (Palmitoleyl, 5 μM); −12% in test [2] (Palmitoleyl, 10 μM). Further, the “percentage of gene editing, GFP fluorescence intensity decrease (% of reduction)” value is listed as 20% in test [2] (Palmitoleyl, 15 μM); 15% in test [2] (Petroselinyl, 15 μM); −31% in test [3] (Dodecanal, 5 μM); −10% in test [3] (Dodecanal, 10 μM); 14% in test [3] (Dodecanal, 15 μM); 10% in test [3] (Myristoleyl, 5 μM). Moreover, the “percentage of gene editing, GFP fluorescence intensity decrease (% of reduction)” value is 33% in test [3] (Myristoleyl, 10 μM); −4% in test [3] (Oleyl, 10 μM); 15% in test [3] (Oleyl, 15 μM); −8% in test [3] (Palmitoleyl, 5 μM); 26% in test [3] (Palmitoleyl, 10 μM); 7% in test [3] (Palmitoleyl, 15 μM). For the same substance, the “percentage of gene editing, GFP fluorescence intensity decrease (% of reduction)” value in test [3] (Petroselinyl, 5 μM) is reported as −27%.

Values taken from US20250304623A1, “PEPTIDES FOR INTRACELLULAR DELIVERY” (UNIVERSIDADE DE SANTIAGO DE COMPOSTELA, priority 2022, published 2025).
